Data published in ChEMBL document CHEMBL3046347, “Synthesis and biological evaluation of novel curcumin analogues as anti-inflammatory, anti-cancer and anti-oxidant agents” (Med Chem Res, 2012).

Columns and labels:
[1] = Cytotoxicity against Homo sapiens (human) H460 cells at 10 uM after 48 hr by propidium iodide-based fluorometric assay; assay type: functional; conditions: NCI-H460, 48 h, read-out: GI
[2] = tested on: Radical scavenging activity; test: Antioxidant activity assessed as DPPH radical scavenging activity at 1 uM after 20 min by spectrophotometric analysis; assay type: functional
Calu-1 = test: Cytotoxicity against Homo sapiens (human) Calu1 cells at 10 uM after 48 hr by propidium iodide-based fluorometric assay; assay type: functional; conditions: Calu-1, 48 h, read-out: GI
THP-1 [3] = test: Anti-inflammatory activity in Homo sapiens (human) THP1 cells assessed as inhibition of LPS-induced TNFalpha production at 10 uM incubated for 30 min prior to LPS-challenge measured after 24 hr by ELISA; assay type: functional
THP-1 [4] = test: Anti-inflammatory activity in Homo sapiens (human) THP1 cells assessed as inhibition of LPS-induced IL6 production at 10 uM incubated for 30 min prior to LPS-challenge measured after 24 hr by ELISA; assay type: functional
[5] = Antioxidant activity assessed as reduction of potassium ferricynide at 1 uM after 10 min by spectrophotometric analysis; assay type: functional; design: scale not given: the % may be the effect or the level left
[6] = Cytotoxicity against Homo sapiens (human) […] cells at 10 uM; assay type: cell-based
[7] = target: T1, Beta-glucuronidase (Homo sapiens) (UniProt P08236); test: Inhibition of beta-glucuronidase (unknown origin) using p-nitrophenyl-beta-D-glucopyranosiduronic acid as substrate at 1 uM after 30 min by spectrophotometric analysis
T1 sequence (whole entry): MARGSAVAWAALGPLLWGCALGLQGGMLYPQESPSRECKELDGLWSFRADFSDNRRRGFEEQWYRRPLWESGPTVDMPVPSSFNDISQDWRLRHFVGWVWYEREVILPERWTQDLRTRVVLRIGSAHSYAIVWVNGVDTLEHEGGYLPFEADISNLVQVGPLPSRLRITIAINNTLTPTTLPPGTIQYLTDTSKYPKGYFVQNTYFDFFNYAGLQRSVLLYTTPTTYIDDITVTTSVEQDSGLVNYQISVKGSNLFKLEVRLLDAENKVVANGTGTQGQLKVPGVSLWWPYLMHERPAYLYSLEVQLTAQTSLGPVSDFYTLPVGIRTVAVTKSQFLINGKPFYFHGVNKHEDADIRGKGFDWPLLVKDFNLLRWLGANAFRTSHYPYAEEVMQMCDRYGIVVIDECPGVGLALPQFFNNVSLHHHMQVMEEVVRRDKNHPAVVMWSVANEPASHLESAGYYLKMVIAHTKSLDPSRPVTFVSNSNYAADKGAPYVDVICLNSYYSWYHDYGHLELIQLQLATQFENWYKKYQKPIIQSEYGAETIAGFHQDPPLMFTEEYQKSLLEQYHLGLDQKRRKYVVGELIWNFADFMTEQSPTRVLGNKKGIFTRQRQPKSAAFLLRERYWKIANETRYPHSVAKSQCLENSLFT

[8] = target: T2, Prostaglandin G/H synthase 1 (Ovis aries) (UniProt P05979); conditions: at 1 µM;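 note: colorimetric read-out, measured after 5 min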
T2 sequence (whole entry): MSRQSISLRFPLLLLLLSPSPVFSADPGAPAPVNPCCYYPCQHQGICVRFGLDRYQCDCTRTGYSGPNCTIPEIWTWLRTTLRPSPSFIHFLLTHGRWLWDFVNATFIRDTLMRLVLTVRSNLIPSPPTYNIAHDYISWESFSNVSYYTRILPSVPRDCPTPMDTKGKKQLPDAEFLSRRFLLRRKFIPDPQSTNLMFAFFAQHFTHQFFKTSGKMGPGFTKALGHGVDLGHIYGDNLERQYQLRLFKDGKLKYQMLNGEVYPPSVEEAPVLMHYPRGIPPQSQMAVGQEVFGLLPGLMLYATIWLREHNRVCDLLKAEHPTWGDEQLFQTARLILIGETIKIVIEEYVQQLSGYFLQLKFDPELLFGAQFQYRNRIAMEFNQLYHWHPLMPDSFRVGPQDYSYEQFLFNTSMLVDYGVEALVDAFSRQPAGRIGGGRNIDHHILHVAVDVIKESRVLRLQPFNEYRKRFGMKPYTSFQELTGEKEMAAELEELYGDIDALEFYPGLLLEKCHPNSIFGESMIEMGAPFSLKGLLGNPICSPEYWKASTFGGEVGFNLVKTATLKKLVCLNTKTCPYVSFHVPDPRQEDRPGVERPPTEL
Description: Inhibition of Ovis aries (sheep) COX1 at 1 uM after 5 min by colorimetric analysis

ACHN = test: Cytotoxicity against Homo sapiens (human) ACHN cells at 10 uM after 48 hr by propidium iodide-based fluorometric assay; assay type: functional; conditions: read-out: GI
PANC-1 = test: Cytotoxicity against Homo sapiens (human) PANC1 cells at 10 uM after 48 hr by propidium iodide-based fluorometric assay; assay type: functional; conditions: PANC-1, 48 h, read-out: GI
[9] = Antioxidant activity assessed as hydroxyl radical scavenging activity at 1 uM by spectrophotometric analysis; assay type: functional
[10] = target: T3, Prostaglandin G/H synthase 2 (Ovis aries) (UniProt P79208); test: Inhibition of Ovis aries (sheep) COX2 at 1 uM after 5 min by colorimetric analysis
T3 sequence (whole entry): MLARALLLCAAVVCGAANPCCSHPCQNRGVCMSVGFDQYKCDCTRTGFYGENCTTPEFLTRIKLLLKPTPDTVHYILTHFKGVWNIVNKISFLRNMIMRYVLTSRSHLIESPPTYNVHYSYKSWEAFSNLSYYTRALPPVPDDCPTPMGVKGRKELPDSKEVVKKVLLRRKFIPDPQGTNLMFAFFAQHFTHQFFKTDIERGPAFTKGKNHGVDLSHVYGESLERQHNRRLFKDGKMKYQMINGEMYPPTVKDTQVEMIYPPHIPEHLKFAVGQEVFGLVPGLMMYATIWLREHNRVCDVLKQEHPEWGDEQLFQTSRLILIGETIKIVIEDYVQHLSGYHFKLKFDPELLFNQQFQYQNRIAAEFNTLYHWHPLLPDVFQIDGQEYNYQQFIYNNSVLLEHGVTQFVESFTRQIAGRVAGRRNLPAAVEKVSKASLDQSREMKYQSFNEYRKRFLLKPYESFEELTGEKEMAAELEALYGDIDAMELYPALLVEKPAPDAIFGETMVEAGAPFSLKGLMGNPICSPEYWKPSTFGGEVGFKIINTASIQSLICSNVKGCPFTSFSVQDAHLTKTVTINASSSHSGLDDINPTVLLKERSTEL

Trypsin (Homo sapiens) = Trypsin (Homo sapiens) (UniProt P07477+P07478+P35030); test: Inhibition of trypsin (unknown origin) using bovine serum albumin as substrate at 1 uM incubated for 20 min prior to substrate addition measured after 25 min by Lowry method; assay type: protein assay
HCT-116 = test: Cytotoxicity against Homo sapiens (human) HCT116 cells at 10 uM after 48 hr by propidium iodide-based fluorometric assay; assay type: functional; conditions: HCT-116, 48 h, read-out: GI

Compound | inhibition of growth at 10 µM [1] [%] | Activity [2] [%] | inhibition of growth at 10 µM (Calu-1) [%] | inhibition at 10 µM (THP-1 [3]) [%] | inhibition at 10 µM (THP-1 [4]) [%] | Activity [5] [%] | Activity [6] [%] | inhibition [7] [%] | inhibition [8] [%] | inhibition of growth at 10 µM (ACHN) [%] | inhibition of growth at 10 µM (PANC-1) [%] | Activity [9] [%] | inhibition [10] [%] | inhibition (Trypsin (Homo sapiens)) [%] | inhibition of growth at 10 µM (HCT-116) [%]
COc1ccc(C(=O)Nc2cccc(C(=O)/C=C/c3c(OC)cc(OC)c(Br)c3OC)c2)cc1 | 98 | 36.3 | 99 | 63 | 94 | 26.9 | 65 | 34 | 19.6 | 97 | 99 | 21.2 | 38 | 39.6 | 98
COc1cc(OC)c(/C=C/C(=O)c2cccc(NC(=O)c3ccccc3F)c2)c(OC)c1Br | 52 | 42.9 | 67 | 84 | 96 | 40.5 | 56 | 74.2 | 44.8 | 66 | 68 | 43.2 | 79.3 | 64.8 | 66
COc1cc(OC)c(/C=C/C(=O)c2cccc(NC(=O)c3ccccc3C)c2)c(OC)c1Br | 32 | 31.1 | 0 | 72 | 95 | 22.3 | 54 | 29.7 | 31.5 | 15 | 3 | 34.6 | 43.7 | 35.5 | 21
COc1cc(OC)c(/C=C/C(=O)c2cccc(NC(=O)c3cccs3)c2)c(OC)c1Br | 72 | 35.3 | 85 | 80 | 96 | 32.7 | 53 | 44.7 | 27.8 | 82 | 89 | 49.3 | 55.4 | 41.4 | 98
COc1cc(OC)c(/C=C/C(=O)c2cccc(NC(=O)c3ccc(C(C)(C)C)cc3)c2)c(OC)c1Br | 51 | 43.6 | 32 | 83 | 96 | 36.8 | 56 | 82.5 | 64.6 | 35 | 37 | 27.3 | 85.8 | 69.6 | 10
CC(=O)Oc1ccccc1C(=O)O | – | – | – | – | – | – | – | – | – | – | – | – | 36.9 | – | –
O=C(O)c1ccccc1O | – | – | – | – | – | – | – | 24.8 | – | – | – | – | – | 85 | –
COc1cc(OC)c(/C=C/C(=O)c2cccc(NC(=O)c3cccc(F)c3)c2)c(OC)c1Br | 33 | 43.3 | 31 | 78 | 93 | 39.9 | 51 | 72.9 | 59.8 | 33 | 32 | 32.2 | 82.5 | 63.5 | 26
COc1cc(OC)c(/C=C/C(=O)c2cccc(NC(=O)c3cccc(Cl)c3)c2)c(OC)c1Br | 17 | 45.3 | 26 | 0 | 64 | 38.4 | 25 | 78.2 | 53.9 | 26 | 35 | – | 86.5 | 78.1 | 28
COc1cc(OC)c(/C=C/C(=O)c2cccc(NC(=O)c3cccc(Br)c3)c2)c(OC)c1Br | 6 | 42.6 | 0 | 4 | 75 | 39.7 | 31 | 84.7 | 41.7 | 6 | 0 | 23.6 | 88.4 | 66.5 | 0
COc1cc(OC)c(/C=C/C(=O)c2cccc(NC(=O)c3ccccc3C(F)(F)F)c2)c(OC)c1Br | 11 | 44.6 | 0 | 85 | 95 | 42.9 | 62 | 76.9 | 39.9 | 6 | 3 | 35.9 | 87.9 | 68.4 | 6
COc1cc(OC)c(/C=C/C(=O)c2cccc(NC(=O)c3cccc(C(F)(F)F)c3)c2)c(OC)c1Br | 4 | 45.7 | 0 | 85 | 97 | 40.7 | 65 | 81.4 | 48.9 | 15 | 0 | – | 89.2 | 65.5 | 6
O=C(O)c1cc(O)c(O)c(O)c1 | – | 92.4 | – | – | – | – | – | – | – | – | – | – | – | – | –
